Assay results: US9107914B2, “Beta-carbolines for use in the treatment of hearing loss and vertigo” (AudioCure Pharma GmbH, priority 2009, dated 2015)
Entries after “also recorded” stand apart in the source; their conditions may differ.

Assays:
inner ear of guinea pigs = experiment: Prophylaxis of hearing damages in an animal model, gentamicin and etacrynic acid (Example 30); format: in vivo; details: infusion to the round window recess, gentamicin and etacrynic acid i.v.
Description: A solution containing β-carboline was infused continuously into the recess in front of the membrane of the round window of guinea pigs by a osmotic mini-pump for three days. The following β-carbolines were tested individually in this experiment: 9-methyl-β-carboline, compounds XI, XII, XVIII, XIX as well as C to L.
Then, a standard dose of gentamicin and etacrynic acid was injected intravenously into guinea pigs. Gentamicin and etacrynic acid damage the inner ear. Typically, they are used as toxins to induce deafness in such studies. The infusion was continued for further two days. Then, the electrophysiological activity of the nerve cells of the brain stem, which transmit the impulses of the inner ear, was deduced after acoustic irradiation of the ear with […]. The non-β-carboline-treated ear served as intraindividual control (Prieskorn D M, Miller J M. Technical report: chronic and acute intracochlear infusion in rodents. Hear Res, 2000; 140(1-2): 212-215). Moreover, animals were infused with 9-Me-BC only but not with gentamicin as a further control.
The measured electrophysiological activity of the nerve cells of the acoustic nerve (hearing threshold) served as a measure of the degree of therapeutic effect of the used β-carbolines on the inner ear. As can be learned from Table 3, the used β-carbolines show the increase in electrophysiological activity of the nerve cells of the acoustic nerve. It can be concluded from this that β-carbolines are useful for the treatment of hearing damages, vertigo, and vestibular disorders.

[1] = tested on: human SH-SY5Y neuroblastoma cells; experiment: Differentiation model / neurite length in human neuroblastoma cells; format: cell-based; details: 14 days; for neurite length: vs control group, P<0.001; for differentiation / neurite length in comparison to 9-methyl-β-carboline: SH-SY5Y cells; for differentiation / neurite length in comparison to 9-methyl-β-carboline: key: +: marginally better than 9-methyl-β-carboline; ±: equal to 9-methyl-β-carboline; −: marginally worse than 9-methyl-β-carboline
Source text: Human neuroblastoma cells were utilised for this model. These are permanent cells, which are present as an indifferent type in culture. They can be activated to differentiate, i.e. transformation into neuronal cells, by addition of specific substances such as retinoic acid, […] (BDNF) or activator of the enzyme, protein kinase C to the culture medium. We used this cell system to analyse whether beta-carbolines can transform the indifferent cells into the neuronal type. Criteria were: less proliferation (less cells per field of view); smaller cell bodies (transformation from the indifferent type to the neuronal type); cytodendrites (neuritis), which provide connections to neighbouring cells or clusters of neighbouring cells.
Human SH-SY5Y neuroblastoma cells were incubated in culture for 14 days with solvent (Ko) or test substance. A shift of the graph to the right side for a test substance, pointed to an increase of neurite length, when compared to the graph for the control substance. Statistical differences between the treated groups were calculated with the Tukey's Multiple Comparison-Test.
Shown are the cumulative frequency distributions of neurite lengths, determined in at least 20 randomly selected visual fields (each 640.000 μm^2) in three independent experiments. A steep rise pointed to a predominance of short neuritis, wherein for example in control cells, a less steep rise signified a greater number of longer neurites. The horizontal maximum indicated the maximal neurite length of the respective treatment group. […] The effects are dose- and substance-dependent: 1-methyl-β-carboline <6-methoxy-9-methyl-β-carboline <9-methyl-β-carboline <9-fluorethyl-β-carboline).
The effects of the other inventive β-carbolines (compounds A-L and VI-XX) on neurite length were determined, as described above, in human SH-SY5Y neuroblastoma cells after 14 days.

[2] = tested on: transcription factor CREB in SH-SY5Y cells; experiment: Dual luciferase method for intracellular cascades (FIG. 5); format: cell-based, human; details: dose-dependent activating effect, 48 h incubation, three independent experiments
Source text: The effects of β-carbolines on several intracellular cascades were investigated. Of them it is known, that at their respective ends, several transcription factors are formed in the cell nucleus, that in turn activate the transcription of a group of further genes. The dual luciferase method was used. One luciferase served as transfection control, whereas the second is coupled to the appropriate specific binding sequence of the DNA.

[3] = tested on: BDNF (brain-derived neurotrophic factor) in human SH-SY5Y cells; experiment: Relative gene expression of BDNF (FIG. 4A); format: cell-based
Description: (§1) Next, it was investigated, whether the substances could induce the formation of nerve growth factors in human SH-SY5Y neuroblastoma cell. After 2 and 14 days the cells were harvested and the expression of the target gene and the house keeping gene was determined via reverse transcriptase-PCR.

[4] = set-up: species or system guinea pigs; details: guinea pig, in vivo
Description: Thus, infusion took place into the middle ear and, therefore, outside the cochlea of the inner ear, whereby the tympanic membrane was not damaged. After three hours, 5 μL of perilymph were obtained from the apex, the tip of the cochlea, i.e. the part of the cochlea distanced most from the membrane of the round window, by a previously implanted cannula. The sample was diluted and was separated immediately by high-pressure liquid chromatography (HPLC) without further processing; and the natural fluorescence of β-carboline was determined by a fluorescence detector. The experiment was repeated with a second guinea pig and identical conditions but the sample was obtained after a 10-hour infusion. […] In a second series, 20 μg of 9-Me-BC were applied into the perilymph straight through the membrane of the round window, i.e. intra-cochlear. After three hours and after 20 hours in case of another animal, perilymph was obtained and analysed as described above. Results are depicted in FIG. 6 together with a calibration series. […] A single maximum, which represents 9-Me-BC, can be seen after 7 minutes in the upper chromatogram of FIG. 6. Clearly, no further maximum is to be seen; thus, 9-Me-BC is not degraded.

[5] = tested on: organ of Corti of the cochlea of rats; experiment: Real-time RT-PCR of organ cultures of the organ of Corti (Example 14); format: cell-based; details: 90 μM, 48 hours, rat organ of Corti culture, vs solvent (100%)
Description: Initially, organ cultures of the organ of Corti of the cochlea of rats were prepared, which were brought into contact with 9-methyl-β-carboline in a next step. Expression of different neurotrophins was measured as a marker of the effects of 9-methyl-β-carboline on the organs or Corti. For this, RNA was isolated from Corti's tissue, transcribed into cDNA, and the concentrations of the cDNAs of the neurotrophins were determined with help of the real-time RT-PCR method.
Organs of Corti of the cochlea of 40 rats were prepared in several sessions on day 4 post partum. […] Amount and quality of the RNA were determined photometrical. […] Real-time reverse transcriptase polymerase chain reaction (real-time RT-PCR) was performed with the LightCycler System of Roche Applied Science, Mannheim, using the fluorescence resonance energy transfer (FRET) method. […] The gen for hydroxymethylbilane synthase (HMBS) was selected as a so-called housekeeping gene for relative quantification. […] The measured fluorescence of each cycle was analysed by the LightCycler Software. […] Quantification was conducted by the 2^−ΔΔC(t) method of Livak and Schmittgen (Livak K J and Schmittgen T D. Analysis of relative gene expression data using real-time quantitative PCR and the 2(-Delta Delta C(T)) Methods 2001; 25:402-8).

[6] = tested on: NPY (Neuropeptide Y) in human SH-SY5Y cells; experiment: Relative gene expression of NPY (FIG. 4E); format: cell-based; details: after 14 days of exposure
Description: as §1

[7] = tested on: cerebellin-1 precursor protein (CBLN) in human SH-SY5Y cells; experiment: Relative gene expression of CBLN (FIG. 4B); format: cell-based
Description: as §1

SMILES	effect on the inner ear (electrophysiological activity, hearing threshold) in comparison to 9-methyl-β-carboline (inner ear of guinea pigs)	neurite length ([1]; 50 μM)	differentiation / neurite length in comparison to 9-methyl-β-carboline [1]	formation of the transcription factor CREB relative to the level in control cells [2]	BDNF transcription ([3]; SH-SY5Y cells)	neurite length ([1]; 70, 90 or 110 μM)	degradation in perilymph (further chromatographic maxima) [4]	penetration of the membrane of the round window into the perilymph [4]	generation of neurotrophins Armetl 1, BDNF, Cbln 1, NGF and NPY (transcription) [5]	dopaminergic proteins (dopamine receptor subtype 1, tyrosine hydroxylase) transcription ([5]; listed as 9-Me-BC)	NPY gene expression, concentration dependence [6]	concentration(s) that stimulated BDNF transcription ([3]; after two days) [µM]	neurite length ([1]; 30, 50 or 70 μM)	CBLN gene expression ([7]; after 14 days of exposure)	CBLN gene expression ([7]; after two days exposure)
COc1ccc2c(c1)c1ccncc1n2C [9-Me-6-MeO—BC (XVIII), 6-methoxy-9-methyl-9H-β-carboline]	±	increase in neurite length	+	up to ten times	enormous, dose-dependent increase	–	–	–	–	–	–	–	–	–	–
Cn1c2ccccc2c2ccncc21 [9-methyl-β-carboline]	–	–	–	up to ten times	–	increase in neurite length	not degraded	penetrates the membrane of the round window	activated	activates specifically characteristic proteins of dopaminergic nerve cells; also recorded: increasingly activated	lower concentrations were more effective than the higher concentrations	110	–	–	–
FCCn1c2ccccc2c2ccncc21 [fluorethyl-BC (XIX), 9-(2-fluoroethyl)-9H-β-carboline]	+	–	+	up to ten times	–	–	–	–	–	–	lower concentrations were more effective than the higher concentrations	–	increase in neurite length	roughly the same stimulation at all investigated concentrations	increased
